# Data from US6465259B1, “Non radioactive receptor assay suitable for quantitative and qualitative analysis of trace amounts of receptor binding analyte” (Merska B.V., priority 1999, dated 2002).
# Like-named read-outs stand apart in the source and are kept apart here.
# Experiments:
# benzodiazepine receptor [1] = conditions: rat receptor material, cited from earlier work
# benzodiazepine receptor [2] = biological target: T1, benzodiazepine receptor; assay: Fluorescent receptor assay for benzodiazepines, calibration curves with FLB as labeled ligand; format: binding, calf; conditions: 7.3 nM
# T1 construct: IC50; other: FLB as labeled ligand, 7.3 nM; Bmax; other: saturation with FLB; other: [3H]flunitrazepam as labeled ligand, 2.2 nM; other: FLB assay concentration 7.3 nM; recov
# benzodiazepine receptor [3] = biological target: T1, benzodiazepine receptor; assay: Radioligand binding assay with [3H]flunitrazepam; parameters: species or system calf
# Experimental: Calf brains, obtained from the slaughtcrhouse and stored at −80° C. after discarding the cerebellum, were homogenized in 6 volunmes (w/v) of ice-cold 0.32 M sucrose in a Potter-Elvehjem homogenizer (RW 20 DZW. Janke & Kunkel K G, Staufen i. Breisgau, Germany) fitted with a teflon pestle and centrifuged for 10 min at 1,000 ×g in a Beckman L8-55 Ulcracentrifuge (Beckman Instruments, Mijdrecht, The Netherlands). The supernatant was centrifuged for 60 min at 100,000×g. The resulting pellet (P2) was resuspended in sodium phosphate buffer (pH 7.4; 50 mM) and centrifuged for 30 min at 100,000×g. This washing step was repeated four times. All operations were performed at 4° C. […]
# The filters of a MultiScreen-FB filtration plate were pre-wetted by pipetting 200 μl ice-cold Tris-HCl buffer (pH 7.4; 50 mm) into each well. […] After shaking the vials, the radioactivity was counted for 5 min in a Tri-Carb 4000 Packard scintillation counter (Canberra Packard, Groningen, The Netherlands). […]
# The saturation and inhibition curves for both the radioactive labeled benzodiazepine [^3H]flunitrazepam and the fluorescent labeled benzodiazepine. […] The specific binding was calculated by subtracting the non-specific binding from the total binding. […] The Bmax value was calculated to be 3.42±0.01 nM, which corresponds to 3.84±0.09 pM/mg protein. […]
# benzodiazepine receptor [4] = assay: Affinity for the benzodiazepine receptor, method not described; format: binding; conditions: FIG. 1 legend
# benzodiazepine receptor [5] = system: T1, benzodiazepine receptor; assay: Fluorescent binding assay, saturation experiments with FLB; parameters: species or system calf
# Experimental: (§1) Calf brains, obtained from the slaughtcrhouse and stored at −80° C. after discarding the cerebellum, were homogenized in 6 volunmes (w/v) of ice-cold 0.32 M sucrose in a Potter-Elvehjem homogenizer (RW 20 DZW. Janke & Kunkel K G, Staufen i. Breisgau, Germany) fitted with a teflon pestle and centrifuged for 10 min at 1,000 ×g in a Beckman L8-55 Ulcracentrifuge (Beckman Instruments, Mijdrecht, The Netherlands). The supernatant was centrifuged for 60 min at 100,000×g. The resulting pellet (P2) was resuspended in sodium phosphate buffer (pH 7.4; 50 mM) and centrifuged for 30 min at 100,000×g. This washing step was repeated four times. All operations were performed at 4° C. The washed P2-pellet was resuspended in 5 volumes (w/v) phosphate buffer, frozen with liquid nitrogen and lyophilized (Hetosicc CD 52-1, Heto, Birkerød, Denmark) . rhe lyophilized P2-pellet was stored at −20° C. For the receptor binding assays, the lyophilized P2-pellet was resuspended in Tris-HCl buffer (pH 7.4; 50 mM) with the glass-teflon Potter homogenizer (3.5 mg/inl).
# (§2) For the saturation experiments, 25 μl FLB solution (0.5-50 nM final concentration) in Tris-HCl buffer (pH 7.4; 50 mM) were pipetted in duplicate in the wells of the filtration plate after pre-wetting the filters. […] To this mixture, 200 μl of the receptor suspension (225 μg protein per assay) were added and the plate was shaken for 1 min. […] Hundred μl of the filtrates were analyzed with the above described HPLC-method.
# (§3) The saturation and inhibition curves for both the radioactive labeled benzodiazepine [^3H]flunitrazepam and the fluorescent labeled benzodiazepine. […] The specific binding was calculated by subtracting the non-specific binding from the total binding. […] The Bmax value was calculated to be 3.42±0.01 nM, which corresponds to 3.84±0.09 pM/mg protein. […] After binding of BD 623 to the receptor, the fluorescence intensity is decreased and from the level of fluorescence quenching the amount of bound BD 623 can be estimated. […]
# benzodiazepine receptor [6] = assay: as above; parameters: species or system calf; conditions: free initial concentration of 15 nM
# Experimental: as §1, §2, §3
# benzodiazepine receptor [7] = conditions: McCabe et al. [h]; cited from earlier work
# benzodiazepine receptor [8] = conditions: cited from earlier work
compound,measurement,setting,value
CCOC(=O)c1ncn2c1CN(C)C(=O)c1cc(F)ccc1-2 [[^3H]flumazenil],Bmax,benzodiazepine receptor [1]; filtration,2.3 nM
O=C1Nc2ccc(Cl)cc2C(c2ccccc2Cl)=NC1O (stereo not shown) [lorazepam],IC50,benzodiazepine receptor [2],7.2 ± 0.5 nM
same,IC50,"benzodiazepine receptor [3]; [3H]flunitrazepam as labeled ligand, 2.2 nM",6.61 ± 0.69 nM
NBD-NH—(CH2)3-Ro15-3890 [BD 623],Ki,benzodiazepine receptor [4],5.7 nM
same,Bmax,"benzodiazepine receptor [1]; fluorescence quenching, no bound/unbound separation",7.2 nM
Mmc-O—CO—(CH2)3-Ro15-3890 [FLB],Ki,"benzodiazepine receptor [3]; read-out: Ki-value, inhibition assays with [3H]flunitrazepam",6.5 nM
same,added FLB bound to the receptors (total binding),benzodiazepine receptor [5]; FLB assay concentration 7.3 nM,26%
same,Kd,"benzodiazepine receptor [5]; saturation curve, one-binding site model, read-out: binding affinity (Kd) for the benzodiazepine receptor",~7.3 nM
same,"non-specific binding, % of the total binding",benzodiazepine receptor [6],25%
fluorescein-NH—(CH2)3-Ro15-3890 [BD 621],Kd,benzodiazepine receptor [7],63 nM
CN1C(=O)CN=C(c2ccccc2)c2cc(Cl)ccc21 [diazepam],IC50,benzodiazepine receptor [2],41 ± 7 nM
AMCA-didesethylflurazepam [AMCA-Ro7-1986],Ki,benzodiazepine receptor [8]; from reference [b],8.6 nM
same,non-specific binding,benzodiazepine receptor [8]; reference [b],20%
